{
  "source": "paper PMC7482441",
  "about": "(Pharmacological Research, 2020)",
  "origin": "cited, not measured here",
  "key": {"BIO 14.6 hamster": {"test_system": "BIO 14.6 hamster", "settings": "cited from earlier work"}, "mdx mice": {"test_system": "mdx mice", "settings": "cited from earlier work"}},
  "data": [
    {"smiles": "CC(C)c1ccc(C(=O)NC(=N)N)cc1S(C)(=O)=O", "note": "[Cariporide]", "values": [
      {"measurement": "intracellular Ca2+ levels and Na+ influx", "setting": "BIO 14.6 hamster", "result": "normalised"},
      {"measurement": "creatine kinase (CK) levels, inflammation, fibrosis and histological skeletal muscle damage", "setting": "mdx mice", "result": "markedly reduced"}
    ]}
  ]
}
